Read-outs that look alike come from different tables or passages of the source.
Experiments:
HOS = assay: Cytotoxicity test (MTT), HOS; format: cell-based; details: 10^−6 M, cultured for 72 hrs, in comparison with the control group
Protocol: (§1) The cytotoxic effect of the benzamidine derivative of the present invention was evaluated by carrying out the experiment described below.
(§2) The test substance was diluted in an appropriate solvent at a concentration of 10^−2 M. This substance was diluted in an appropriate culture medium for the cells used in the cytotoxicity test to a concentration of 10^−6M, and loaded into a 96-well plate in 100 μl per well. The cell lines to be used in the cytotoxicity test were plated on a 96-well plate in a dose of 1.0×10^4 cell/100 μl per well, and cultured for 72 hrs. 25 μl of MTT[3-(4,5-dimethyl-2-thiazolyl)-2,5-diphenyl-2H-tetrazolium bromide] dissolved in PBS (2 mg/mL) were added before 4 hrs of the end of culture. After completion of the reaction, the plates were centrifuged, the medium was discarded and 100 μl of DMSO was added to dissolve formazan. Finally, the absorbance of the developed plates was measured at 540 nm. The survival rates of the cells were expressed as % concentration values in comparison with the control group.

[1] = system: osteoclast differentiation; assay: Inhibitory effects on osteoclast differentiation (bone marrow cell/osteoblast co-culture, TRAP staining); format: cell-based, mice; details: for inhibition at 1 µM: Mus musculus, Osteoclast, 168 h, read-out: Inhibition of osteoclast differentiation (%)
Protocol: The effect of the benzamidine derivative of the present invention on osteoclast formation and differentiation process was evaluated via co-culture with an osteoblast.
Tibia was aseptically ectomized from 6 to 8-week-old male ddY mice to harvest bone marrow cells by using a syringe (21G, Korea Green Cross). The bone marrow cells were suspended in 5 mL of an α-MEM medium (Gibco BRL Co., supplemented with sodium bicarbonate (2.0 g/L), streptomycin (100 mg/L) and penicillin ([…]), filtered and then sterilized). The harvested cells were centrifuged at 600×g for 5 minutes to collect the whole quantity. To remove the red blood cells in the bone marrow cells, 3 mL of Tris HCl (0.83% NH4Cl, pH 7.5) was added and well mixed. After centrifugation, the numbers of the eukaryotic cells in the harvested bone marrow cells were counted, and then immediately used for a co-culture system.
The progenitor bone and the parietal bone were aseptically ectomized from 1 to 2-day-old neonatal ICR mice, washed with a phosphate butter solution (PBS), and treated with a mixed enzyme solution (0.2% collagenase and 0.1% dispase) six to seven times (10, 10, 10, 20, 20 and 20 min), and then 3 to 6 groups of the cells, in which a large volume of cells having osteoblastic characteristics were contained, were intensively collected, and washed with medium (serum-free α-MEM). The washed cells were cultured in the α-MEM medium containing 10% FBS for 2 to 3 days. After sub-culturing, the collected cells were used for this experiment, and diluted to a concentration of 1×10^6 cells/mL for storage at −70° C.
The benzamidine derivative of the present invention was dissolved in a sterile distilled water or ethanol to be diluted to a desired concentration. The final volume of the sample added to the cell culture medium was set at a ratio of 1:1000.
The bone marrow cells prepared in the above 1-1 and the osteoblast were co-cultured. Both the bone marrow cells (25,000 cells/cm^2) and the osteoblast (10,000 cells/cm^2) were plated in a 96-well plate using α-MEM medium containing FBS, and then cultured with the samples to be tested for 7 days. Differentiation factors, such as dexamethasone (10^−7 M) and vitamin D (10^−8 M), were also co-added to the medium from the first day of cultivation. The medium was changed with a fresh media containing a mixture of the samples and the differentiation factors every 2 to 3 days.
TRAP was used as a marker to measure the matured osteoclast in consideration of its characteristics showing a positive reaction to a TRAP staining solution.
The TRAP staining solution was prepared in such the manner that 5 mg of naphthol AS-MS phosphate (sigma N-4875) as a substrate and 25 mg of a coloring agent (Fast Red Violet LB salt) were dissolved in N,N-dimethylformamide (about 0.5 mL). 50 ml of a 0.1 N […] buffer solution containing 50 mM tartaric acid (pH 5.0) was added thereto, and the mixture was stored in a refrigerator prior to use as a staining solution.
After culturing the cells for 7 days, the medium was removed from the wells, the cells were once washed with PBS, and then fixed with PBS containing 10% formalin for 2 to 5 min. The cells were fixed again in a mixed solution of ethanol and acetone (1/1) for about 1 min, and dried off. The cells were further treated by the TRAP staining solution for 15 minutes, and washed with water and dried off. The osteoclasts with 3 or more nuclei showing a TRAP-positive reaction were counted under a microscopic examination. Each of tests was confirmed at least three times. The inhibitory effect on osteoclast differentiation of each experimental group, relative to negative controls, was expressed as a percentage (%).

calvaria = assay: Cytotoxicity test (MTT), calvaria; format: cell-based; details: 10^−6 M, cultured for 72 hrs, in comparison with the control group
Protocol: as §1, §2

MC3T3-E1 = assay: Cytotoxicity test (MTT), MC3T3-E1; format: cell-based; details: 10^−6 M, cultured for 72 hrs, in comparison with the control group
Protocol: as §1, §2

[2] = 1 μm, 7 days co-culture, TRAP-positive osteoclasts with 3 or more nuclei, relative to negative controls

SMILES: COCCNCc1sc(N(C)CCN2CCOCC2)nc1-c1ccc(OCCCCCOc2ccc(C(=N)NO)cc2)cc1 [Example 33, N-hydroxy-4-[5-(4-{5-[(2-methoxy-ethylamino)-methyl]-2-[methyl-(2-morpholin-4-yl-ethyl)-amino]-thiazol-4-yl}-phenoxy)-pentyloxy]-benzamidine]
- Cell survival rate (HOS): 110%
- inhibition at 1 µM [1]: 100%
- Cell survival rate (calvaria): 94%
- Cell survival rate (MC3T3-E1): 104%

SMILES: N=C(NO)c1ccc(OCCCCCOc2ccc(-c3nc(N4CCOCC4)sc3CN3CCOCC3)cc2)cc1 [Example 51, N-hydroxy-4-{5-[4-(2-morpholin-4-yl-5-morpholin-4-ylmethyl-thiazol-4-yl)-phenoxy]-pentyloxy}-benzamidine]
- Cell survival rate (HOS): 91%
- inhibition at 1 µM [1, 2]: 95%
- Cell survival rate (calvaria): 102%
- Cell survival rate (MC3T3-E1): 88%

SMILES: Cc1nc(-c2ccc(OCCCCCOc3ccc(C(=N)NO)cc3)cc2)c(CN2CCOCC2)s1 [Example 8, N-hydroxy-4-{5-[4-(2-methyl-5-morpholin-4-ylmethyl-thiazol-4-yl)-phenoxy]-pentyloxy}-benzamidine]
- Cell survival rate (HOS): 102.3%
- inhibition at 1 µM [1, 2]: 96.4%
- Cell survival rate (calvaria): 90.7%
- Cell survival rate (MC3T3-E1): 94.7%

SMILES: Cc1nc(-c2ccc(OCCCCCOc3ccc(C(=N)NO)cc3)cc2)c(N2CCN(C)CC2)s1 [Example 2, N-hydroxy-4-(5-{4-[2-methyl-5-(4-methyl-piperazin-1-yl)-thiazol-4-yl]-phenoxy}-pentyloxy)-benzamidine]
- Cell survival rate (HOS): 107.0%
- inhibition at 1 µM [1, 2]: 78.6%
- Cell survival rate (calvaria): 87.9%
- Cell survival rate (MC3T3-E1): 91.8%

SMILES: Cc1nc(-c2ccc(OCCCCCOc3ccc(C(=N)NO)cc3)cc2)c(CN2CCN(C)CC2)s1 [Example 9, N-hydroxy-4-(5-{4-[2-methyl-5-(4-methyl-piperazin-1-ylmethyl)-thiazol-4-yl]-phenoxy}-pentyloxy)-benzamidine]
- Cell survival rate (HOS): 95%
- inhibition at 1 µM [1]: 96.4%
- Cell survival rate (calvaria): 92.3%
- Cell survival rate (MC3T3-E1): 98.8%

SMILES: Cc1nc(-c2ccc(OCCCCCOc3ccc(C(=N)NO)cc3)cc2)c(CNCC(C)C)s1 [Example 14, N-hydroxy-4-(5-{4-[5-(isobutylamino-methyl)-2-methyl-thiazol-4-yl]-phenoxy}-pentyloxy)-benzamidine]
- Cell survival rate (HOS): 111%
- inhibition at 1 µM [1]: 100%
- Cell survival rate (calvaria): 103%
- Cell survival rate (MC3T3-E1): 98%

SMILES: Cc1nc(-c2ccc(OCCCCCOc3ccc(C(=N)NO)cc3)cc2)c(N2CCOCC2)s1 [Example 1, N-hydroxy-4-{5-[4-(2-methyl-5-morpholin-4-yl-thiazol-4-yl)-phenoxy]-pentyloxy}-benzamidine]
- Cell survival rate (HOS): 105.6%
- inhibition at 1 µM [1, 2]: 94%
- Cell survival rate (calvaria): 91.5%
- Cell survival rate (MC3T3-E1): 85.9%

SMILES: CCCNCc1sc(C)nc1-c1ccc(OCCCCCOc2ccc(C(=N)NO)cc2)cc1 [Example 16, N-hydroxy-4-{5-[4-(2-methyl-5-propylaminomethyl-thiazol-4-yl)-phenoxy]-pentyloxy}-benzamidine]
- Cell survival rate (HOS): 100%
- inhibition at 1 µM [1]: 100%
- Cell survival rate (calvaria): 95%
- Cell survival rate (MC3T3-E1): 92%

SMILES: Cc1nc(-c2ccc(OCCCCCOc3ccc(C(=N)NO)cc3)cc2)c(CN(C)C)s1 [Example 12, N-hydroxy-4-{5-[4-(5-dimethylaminomethyl-2-methyl-thiazol-4-yl)-phenoxy]-pentyloxy}-benzamidine]
- Cell survival rate (HOS): 107.5%
- inhibition at 1 µM [1]: 64.9%
- Cell survival rate (calvaria): 95.6%
- Cell survival rate (MC3T3-E1): 98.8%

SMILES: CCN(C)c1nc(-c2ccc(OCCCCCOc3ccc(C(=N)NO)cc3)cc2)c(CN2CCOCC2)s1 [Example 26, N-hydroxy-4-(5-{4-[2-(ethyl-methyl-amino)-5-morpholin-4-ylmethyl-thiazol-4-yl]-phenoxy}-pentyloxy)-benzamidine]
- Cell survival rate (HOS): 102%
- inhibition at 1 µM [1, 2]: 98%
- Cell survival rate (calvaria): 107%
- Cell survival rate (MC3T3-E1): 98%

SMILES: N=C(NO)c1ccc(OCCCCCOc2ccc(-c3nc(N4CCOCC4)sc3N3CCOCC3)cc2)cc1 [Example 5, N-hydroxy-4-{5-[4-(2,5-di-morpholin-4-yl-thiazol-4-yl)-phenoxy]-pentyloxy}-benzamidine]
- Cell survival rate (HOS): 100%
- inhibition at 1 µM [1, 2]: 98%
- Cell survival rate (calvaria): 98%
- Cell survival rate (MC3T3-E1): 93%

SMILES: N=C(NO)c1ccc(OCCCCCOc2ccc(-c3nc(N)sc3N3CCOCC3)cc2)cc1 [Example 3, N-hydroxy-4-{5-[4-(2-amino-5-morpholin-4-yl-thiazol-4-yl)-phenoxy]-pentyloxy}-benzamidine]
- Cell survival rate (HOS): 89.0%
- inhibition at 1 µM [1, 2]: 73.2%
- Cell survival rate (calvaria): 97.7%
- Cell survival rate (MC3T3-E1): 94.6%

SMILES: Cc1nc(-c2ccc(OCCCCCOc3ccc(C(=N)NO)cc3)cc2)c(CN2CCCC2)s1 [Example 19, N-hydroxy-4-{5-[4-(2-methyl-5-pyrrolidin-1-ylmethyl-thiazol-4-yl)-phenoxy]-pentyloxy}-benzamidine]
- Cell survival rate (HOS): 90%
- inhibition at 1 µM [1, 2]: 100%
- Cell survival rate (calvaria): 97%
- Cell survival rate (MC3T3-E1): 103%

SMILES: Cc1nc(-c2ccc(OCCCCCOc3ccc(C(=N)NO)cc3)cc2)c(N(C)C)s1 [Example 41]
- Cell survival rate (HOS): 107%
- Inhibition of osteoclast differentiation (%) [1, 2]: 94%
- Cell survival rate (calvaria): 93%
- Cell survival rate (MC3T3-E1): 91%

SMILES: N=C(NO)c1ccc(OCCCCCOc2ccc(-c3nc(N4CCCCC4)sc3N3CCOCC3)cc2)cc1 [Example 52, N-hydroxy-4-{5-[4-(5-morpholin-4-yl-2-piperidin-1-yl-thiazol-4-yl)-phenoxy]-pentyloxy}-benzamidine]
- Cell survival rate (HOS): 97%
- inhibition at 1 µM [1, 2]: 91%
- Cell survival rate (calvaria): 97%
- Cell survival rate (MC3T3-E1): 94%

SMILES: CNc1nc(-c2ccc(OCCCCCOc3ccc(C(=N)NO)cc3)cc2)c(N2CCOCC2)s1 [Example 23, N-hydroxy-4-{5-[4-(2-methylamino-5-morpholin-4-yl-thiazol-4-yl)-phenoxy]-pentyloxy}-benzamidine]
- Cell survival rate (HOS): 104.0%
- inhibition at 1 µM [1, 2]: 58.9%
- Cell survival rate (calvaria): 95.8%
- Cell survival rate (MC3T3-E1): 92.0%

SMILES: CN1CCN(Cc2sc(N(C)CCN3CCOCC3)nc2-c2ccc(OCCCCCOc3ccc(C(=N)NO)cc3)cc2)CC1 [Example 31, N-hydroxy-4-(5-{4-[2-[methyl-(2-morpholin-4-yl-ethyl)-amino]-5-(4-methyl-piperazin-1-ylmethyl)-thiazol-4-yl]-phenoxy}-pentyloxy)-benzamidine]
- Cell survival rate (HOS): 101%
- inhibition at 1 µM [1, 2]: 88%
- Cell survival rate (calvaria): 102%
- Cell survival rate (MC3T3-E1): 110%

SMILES: Cc1nc(-c2ccc(OCCCCCOc3ccc(C(=N)NO)cc3)cc2)c(CNCCCn2ccnc2)s1 [Example 18]
- Cell survival rate (HOS): 106%
- Inhibition of osteoclast differentiation (%) [1, 2]: 100%
- Cell survival rate (calvaria): 94%
- Cell survival rate (MC3T3-E1): 99%

— US20100249402A1, “NOVEL BENZAMIDINE DERIVATIVES, PROCESS FOR THE PREPARATION THEREOF AND PHARMACEUTICAL COMPOSITION FOR PREVENTING OR TREATING OSTEPOROSIS COMPRISING THE SAME” (DONG WHA PHARMACEUTICAL CO. LTD., priority 2007, published 2010)
